# Assay results taken from US20260325533A1, “CDK INHIBITOR COMPOUNDS” (ALEKSIA THERAPEUTICS, INC., priority 2023, published 2026).
# Like-named read-outs stand apart in the source and are kept apart here.
# Experiments:
# Assay type in all cases: biochemical
# CDK4/CCND3 = CDK4/CCND3 (Homo sapiens, UniProt P11802); assay: CDK4 homogeneous time-resolved fluorescence (HTRF) kinase assay; details: CDK4/CCND
# Procedure, shortened: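 Compounds were preincubated with 1.5 nM CDK4/CCND3 for 20 min at 23 °C in HEPES buffer (pH not given), then reacted 60 min with 1 mM ATP and 50 nM ULight-4E-BP1 (Thr37/46) peptide. EDTA stop, Eu-anti-phospho-4E-BP1 detection; 665/615 nm ratio; IC50 from 11-point half-log titrations from 10 μM.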
# CDK6/CCND1 = CDK6/CCND1 (Homo sapiens, UniProt Q00534); assay: CDK6 homogeneous time-resolved fluorescence (HTRF) kinase assay; details: CDK6/CCND
# CDK6/CCND1, sequence (Q00534 whole entry): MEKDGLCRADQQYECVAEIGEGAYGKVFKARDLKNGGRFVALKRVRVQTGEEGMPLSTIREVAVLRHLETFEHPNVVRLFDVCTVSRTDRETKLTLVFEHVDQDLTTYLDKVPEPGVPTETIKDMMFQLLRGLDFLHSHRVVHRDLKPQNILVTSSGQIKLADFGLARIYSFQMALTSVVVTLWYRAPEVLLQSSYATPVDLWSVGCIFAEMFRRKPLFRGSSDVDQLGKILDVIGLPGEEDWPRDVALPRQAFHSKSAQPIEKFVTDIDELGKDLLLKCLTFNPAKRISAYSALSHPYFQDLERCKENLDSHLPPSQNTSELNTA
# CDK6/CCND1, sequence (P24385 whole entry partner): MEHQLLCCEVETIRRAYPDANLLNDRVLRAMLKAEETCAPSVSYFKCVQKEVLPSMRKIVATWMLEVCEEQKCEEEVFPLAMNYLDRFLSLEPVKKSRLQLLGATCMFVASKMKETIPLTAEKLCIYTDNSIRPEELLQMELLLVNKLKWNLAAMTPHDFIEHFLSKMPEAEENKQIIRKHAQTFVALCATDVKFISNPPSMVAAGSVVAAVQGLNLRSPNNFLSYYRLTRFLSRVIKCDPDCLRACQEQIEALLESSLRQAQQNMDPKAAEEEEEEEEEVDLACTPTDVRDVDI
# Procedure, shortened: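 1 nM enzyme, 1 mM ATP, 50 nM ULight-4E-BP1 (Thr37/46) peptide, 1% DMSO; 20 min compound preincubation, 60 min reaction, 23 °C. EDTA stop, 2 nM Eu-anti-phospho-4E-BP1 antibody 60 min. TR-FRET 665 nm (or 665/615 ratio); IC50 from 11-point half-log titration, top 10 μM.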
# CDK2/CCNE1 = CDK2/CCNE1 (Homo sapiens, UniProt P24941); assay: CDK2 homogeneous time-resolved fluorescence (HTRF) kinase assay; details: CDK2/CCNE
# Procedure, shortened: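 3 nM CDK2/CCNE1 was preincubated with compound for 20 min at 23 °C in HEPES buffer (pH not stated), then reacted 60 min with 1 mM ATP and 50 nM ULight-4E-BP1 (Thr37/46) peptide. After EDTA stop, Eu-anti-phospho-4E-BP1 antibody (2 nM) was added for 60 min and TR-FRET read at 665 nm.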
# CDK1/CCNB1 = CDK1/CCNB1 (Homo sapiens, UniProt P06493); assay: CDK1 homogeneous time-resolved fluorescence (HTRF) kinase assay; details: CDK1/CCNB
# CDK1/CCNB1, sequence (P06493 whole entry): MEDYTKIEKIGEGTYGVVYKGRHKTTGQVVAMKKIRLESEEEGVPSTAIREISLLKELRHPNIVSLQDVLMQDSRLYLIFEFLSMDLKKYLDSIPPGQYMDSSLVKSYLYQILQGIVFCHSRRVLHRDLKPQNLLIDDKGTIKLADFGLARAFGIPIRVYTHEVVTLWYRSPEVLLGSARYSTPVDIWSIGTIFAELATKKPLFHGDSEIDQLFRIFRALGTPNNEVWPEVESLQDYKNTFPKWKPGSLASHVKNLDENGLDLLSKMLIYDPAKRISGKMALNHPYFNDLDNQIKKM
# CDK1/CCNB1, sequence (P14635 whole entry partner): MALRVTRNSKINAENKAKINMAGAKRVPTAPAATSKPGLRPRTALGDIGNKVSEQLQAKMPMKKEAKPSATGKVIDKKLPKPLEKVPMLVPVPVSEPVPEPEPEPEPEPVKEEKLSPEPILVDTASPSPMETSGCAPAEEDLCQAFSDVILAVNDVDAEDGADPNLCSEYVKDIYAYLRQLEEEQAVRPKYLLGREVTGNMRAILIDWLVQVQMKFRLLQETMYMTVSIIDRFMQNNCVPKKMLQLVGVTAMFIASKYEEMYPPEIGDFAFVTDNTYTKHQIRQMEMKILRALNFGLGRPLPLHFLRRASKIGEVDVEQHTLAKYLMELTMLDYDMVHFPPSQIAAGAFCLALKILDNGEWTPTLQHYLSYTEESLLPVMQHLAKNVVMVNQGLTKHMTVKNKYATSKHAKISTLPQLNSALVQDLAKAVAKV
# Procedure, shortened: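 HTRF assay with 0.5 nM CDK1/CCNB1, 1 mM ATP, 50 nM ULight-eIF4E-BP1 (Thr37/46) peptide; compound preincubated 20 min, reaction 60 min at 23 °C, EDTA stop, Eu-anti-phospho antibody detection. 11-point half-log titration from 10 μM, 1% DMSO; IC50 from 665 nm or 665/615 signal.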
# [1] = x = IC50 >250 nM, read-out: CDK4/CCND IC50 (>250 nM column)
# [2] = x = IC50 >250 nM, read-out: CDK6/CCND IC50 (>250 nM column)
# [3] = x = IC50 >250 nM, read-out: CDK1/CCNB IC50 (>250 nM column)
# [4] = x = IC50 <25 nM, read-out: CDK2/CCNE IC50 (<25 nM)
# [5] = x = IC50 25-250 nM, read-out: CDK4/CCND IC50 (25-250 nM)
# [6] = x = IC50 25-250 nM, read-out: CDK6/CCND IC50 (25-250 nM)
# [7] = x = IC50 25-250 nM, read-out: CDK1/CCNB IC50 (25-250 nM)
# [8] = <25 nM, read-out: CDK4/CCND IC50 <25 nM
# [9] = <25 nM, read-out: CDK6/CCND IC50 <25 nM
# [10] = <25 nM, read-out: CDK2/CCNE IC50 <25 nM
# [11] = 25-250 nM marked x, read-out: CDK1/CCNB IC50 25-250 nM
# [12] = 25-250 nM marked x, read-out: CDK4/CCND IC50 25-250 nM
# [13] = 25-250 nM marked x, read-out: CDK2/CCNE IC50 25-250 nM
# [14] = >250 nM marked x, read-out: CDK1/CCNB IC50 >250 nM
# CDK4/CCND3, sequence (P11802 whole entry): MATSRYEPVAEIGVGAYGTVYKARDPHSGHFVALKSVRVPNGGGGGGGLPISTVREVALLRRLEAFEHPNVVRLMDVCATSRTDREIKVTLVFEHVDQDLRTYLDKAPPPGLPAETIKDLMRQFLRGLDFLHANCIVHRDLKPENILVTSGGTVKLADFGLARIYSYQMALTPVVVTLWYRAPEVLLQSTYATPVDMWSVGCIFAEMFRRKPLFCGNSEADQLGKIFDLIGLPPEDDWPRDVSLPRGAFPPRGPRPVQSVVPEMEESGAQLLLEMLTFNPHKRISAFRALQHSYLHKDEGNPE
# CDK4/CCND3, sequence (P30281 whole entry partner): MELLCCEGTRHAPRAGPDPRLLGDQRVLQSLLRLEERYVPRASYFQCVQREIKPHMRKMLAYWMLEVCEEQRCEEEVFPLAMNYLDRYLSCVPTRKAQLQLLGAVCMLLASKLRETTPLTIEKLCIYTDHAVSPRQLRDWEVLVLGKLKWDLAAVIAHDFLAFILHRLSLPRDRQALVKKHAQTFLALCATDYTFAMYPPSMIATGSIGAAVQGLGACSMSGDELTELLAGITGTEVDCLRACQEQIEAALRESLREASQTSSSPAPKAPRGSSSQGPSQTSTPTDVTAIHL
SMILES,IC50 (CDK4/CCND3; [1]) [nM],IC50 (CDK6/CCND1; [2]) [nM],IC50 (CDK1/CCNB1; [3]) [nM],IC50 (CDK2/CCNE1; [4]) [nM],IC50 (CDK6/CCND1; [6]) [nM],IC50 (CDK6/CCND1; [9]) [nM],also measured
"CC(C)(O)Cn1cc2ccc(C#Cc3nccc4cnc(Nc5ccc(S(C)(=O)=O)cc5)cc34)cc2n1 (single isomer, unassigned) [Example 577, 2-Methyl-1-(6-((7-((4-(methylsulfonyl)phenyl)amino)-2,6-naphthyridin-1-yl)ethynyl)-2H-indazol-2-yl)propan-2-ol]",> 250,> 250,> 250,–,–,–,"IC50 (CDK2/CCNE1; x = IC50 >250 nM, read-out: CDK2/CCNE IC50 (>250 nM column)): > 250 nM"
"CS(=O)(=O)c1ccc(Nc2cc3c(-c4ccc5c(cnn5CC(O)(C(F)(F)F)C(F)(F)F)c4Cl)nccc3cn2)cc1 (single isomer, unassigned) [Example 587, 2-((4-chloro-5-(7-((4-(methylsulfonyl)phenyl)amino)-2,6-naphthyridin-1-yl)-1H-indazol-1-yl)methyl)-1,1,1,3,3,3-hexafluoropropan-2-ol]",> 250,> 250,> 250,< 25,–,–,–
"CC1NCCc2cc(-c3nccc4cnc(Nc5ccc(S(C)(=O)=O)cc5)cc34)ccc21 (single isomer, unassigned) [Example 599, 5-(1-methyl-1,2,3,4-tetrahydroisoquinolin-6-yl)-N-(4-(methylsulfonyl)phenyl)-2,6-naphthyridin-3-amine]",> 250,> 250,> 250,–,–,–,"IC50 (CDK2/CCNE1; x = IC50 25-250 nM, read-out: CDK2/CCNE IC50 (25-250 nM)): 25 to 250 nM"
"Cc1c(-c2nccc3cnc(Nc4ccc(S(C)(=O)=O)cc4)cc23)ccc2c1cnn2CC(C)(C)O (single isomer, unassigned) [Example 674, 2-methyl-1-(4-methyl-5-(7-((4-(methylsulfonyl)phenyl)amino)-2,6-naphthyridin-1-yl)-1H-indazol-1-yl)propan-2-ol]",–,–,–,< 25,25 to 250,–,IC50 (CDK4/CCND3; [5]): 25 to 250 nM; IC50 (CDK1/CCNB1; [7]): 25 to 250 nM
"CS(=O)(=O)N1CCC(Nc2cc3c(N4CCCCC4)nccc3cn2)CC1 [Ex 27, N-(1-(methylsulfonyl)piperidin-4-yl)-5-(piperidin-1-yl)-2,6-naphthyridin-3-amine]",–,–,–,–,–,< 25,IC50 (CDK4/CCND3; [8]): < 25 nM; IC50 (CDK2/CCNE1; [10]): < 25 nM; IC50 (CDK1/CCNB1; [11]): 25 to 250 nM
"CN1CCN(c2nccc3cnc(NC4CCN(S(C)(=O)=O)CC4)cc23)CC1 [Ex 29, 5-(4-methylpiperazin-1-yl)-N-(1-(methylsulfonyl)piperidin-4-yl)-2,6-naphthyridin-3-amine]",–,–,–,–,–,< 25,IC50 (CDK4/CCND3; [8]): < 25 nM; IC50 (CDK2/CCNE1; [13]): 25 to 250 nM; IC50 (CDK1/CCNB1; [14]): > 250 nM
"CC(C)N(C)c1nccc2cnc(NC3CCN(S(C)(=O)=O)CC3)cc12 [Ex 35, N1-isopropyl-N1-methyl-N7-(1-(methylsulfonyl)piperidin-4-yl)-2,6-naphthyridine-1,7-diamine]",–,–,–,–,–,–,"IC50 (CDK4/CCND3; [12]): 25 to 250 nM; IC50 (CDK6/CCND1; 25-250 nM marked x, read-out: CDK6/CCND IC50 25-250 nM): 25 to 250 nM; IC50 (CDK2/CCNE1; [10]): < 25 nM; IC50 (CDK1/CCNB1; [11]): 25 to 250 nM"

# Now from value to molecule, other results behind:
IC50 (CDK4/CCND3; [1]) [nM],IC50 (CDK6/CCND1; [2]) [nM],IC50 (CDK1/CCNB1; [3]) [nM],IC50 (CDK2/CCNE1; [4]) [nM],IC50 (CDK6/CCND1; [6]) [nM],IC50 (CDK6/CCND1; [9]) [nM],SMILES,also measured
–,–,> 250,< 25,25 to 250,–,"Cc1c(-c2nccc3cnc(Nc4ccc(S(C)(=O)=O)cc4)cc23)ccc2c1cnn2CC(C)O (single isomer, unassigned) [Example 614, 1-(4-methyl-5-(7-((4-(methylsulfonyl)phenyl)amino)-2,6-naphthyridin-1-yl)-1H-indazol-1-yl)propan-2-ol]",IC50 (CDK4/CCND3; [5]): 25 to 250 nM
> 250,–,–,< 25,25 to 250,–,"CC1(O)C=C(c2nccc3cnc(Nc4ccc(S(C)(=O)=O)cc4)cc23)CCC1 (single isomer, unassigned) [Example 625, 1-methyl-3-(7-((4-(methylsulfonyl)phenyl)amino)-2,6-naphthyridin-1-yl)cyclohex-2-en-1-ol]",IC50 (CDK1/CCNB1; [7]): 25 to 250 nM
–,–,–,–,–,< 25,"CN1CCC(C2CCN(c3nccc4cnc(NC5CCN(S(C)(=O)=O)CC5)cc34)CC2)CC1 [Ex 28, 5-(1'-methyl-[4,4'-bipiperidin]-1-yl)-N-(1-(methylsulfonyl)piperidin-4-yl)-2,6-naphthyridin-3-amine]",IC50 (CDK4/CCND3; [12]): 25 to 250 nM; IC50 (CDK2/CCNE1; [13]): 25 to 250 nM; IC50 (CDK1/CCNB1; [14]): > 250 nM
